Here are results for 30 compounds from patent US10966425B2, “Fungicidal compositions” (SYNGENTA PARTICIPATIONS AG, priority 2016, dated 2021).

Data set [1] relates to Pyrenophora teres. The experiment in a line: Pyrenophora teres / barley / leaf disc preventative (net blotch). It is filed as in vivo. As to conditions: 200 ppm, barley leaf segments cv. Hasso, 5-7 days after application. The protocol:
Barley leaf segments cv. Hasso are placed on agar in a multiwell plate (24-well format) and sprayed with the formulated test compound diluted in water. The leaf segments are inoculated with a spore suspension of the fungus 2 days after application. The inoculated leaf segments are incubated at 20° C. and 65% rh under a light regime of 12 h light/12 h darkness in a climate cabinet and the activity of a compound is assessed as disease control compared to untreated when an appropriate level of disease damage appears in untreated check leaf segments (5-7 days after application).

`CC1(C)N=C(n2cnc3c(F)c(F)ccc32)c2cccc(F)c2C1(C)C` [Compound E-50] yielded a melting point of 112 to 114 °C.

`Cc1cccc2c1ncn2C1=NC(C)(C)C(C)(C)c2c1ccc(Cl)c2F` [Compound E-45] displayed a melting point of 147 to 151 °C.

Regarding `Cc1c(Cl)ccc2c1ncn2C1=NC(C)(C)C(C)(C)c2c(F)cccc21` [Compound E-42], the melting point was in the range of 102 to 103 °C.

As for `Cc1cccc2c1ncn2C1=NC(C)(C)C(C)(C)c2c1ccc(F)c2F` [Compound E-46], the melting point lay within 122 to 125 °C.

As to `CCc1cccc2c1ncn2C1=NC(C)(C)C(C)(C)c2c(F)cccc21` [Compound E-14], the melting point lay in the range of 87 to 88 °C.

`Cc1ccc2c(ncn2C2=NC3(CC3)C3(CC3)c3ccccc32)c1C` [Compound E-58] showed a melting point of 141 to 143 °C.

`Cc1ccc2c(ncn2C2=NC(C)(C)C(=O)c3ccccc32)c1C` [Compound E-25]: the melting point is 159 to 161 °C.

`Cc1cccc2c1C(=O)C(C)(C)N=C2n1cnc2c(C)cccc21` [Compound E-26] yielded a melting point of 96 to 101 °C.

Compound `Cc1ccc2c(ncn2C2=NC(C)(C)C(=O)c3cc(Cl)ccc32)c1C` [Compound E-36] showed a melting point of 196 to 199 °C.

Compound `Cc1cccc2c1C(=O)C(C)(C)N=C2n1cnc2c(C)c(C)ccc21` [Compound E-27] had a melting point of 145 to 149 °C.

Consider `Cc1cccc2c1ncn2C1=NC(C)(C)C(=O)c2cc(Cl)ccc21` [Compound E-34], for which the melting point fell in the range of 129 to 133 °C.

Consider `Cc1cccc2c1ncn2C1=NC2(CCC2)Cc2ccccc21` [Compound E-43], for which the melting point lay in the range of 132 to 133 °C.

The compound `CC1(C)N=C(n2cnc3c(Br)cccc32)c2cccc(F)c2C1(C)C` [Compound E-4] registered a melting point of 48 to 49 °C.

Compound `COC(=O)c1cccc2c1ncn2C1=NC(C)(C)C(C)(C)c2c(F)cccc21` [Compound E-24] came in with a melting point of 178 to 179 °C.

Regarding `Cc1cccc2c1ncn2C1=NC(C)(C)Cc2c(Br)cccc21` [Compound E-38], the melting point lay in the range of 52 to 54 °C.

Regarding `Cc1c(Br)ccc2c1ncn2C1=NC(C)(C)C(C)(C)c2c(F)cccc21` [Compound E-41], the melting point lay within 122 to 124 °C.

On to `CC1(C)N=C(n2cnc3cc(Cl)c(Cl)cc32)c2cccc(F)c2C1(C)C` [Compound E-39], for which the melting point was in the range of 126 to 127 °C.

For `CC(C)c1cccc2c1ncn2C1=NC(C)(C)C(C)(C)c2c(F)cccc21` [Compound E-12], the melting point lay in the range of 113 to 114 °C.

In turn, `Cc1c(F)ccc2c1ncn2C1=NC(C)(C)C(F)(F)c2ccccc21` [Compound E-32] returned a melting point of 118 to 121 °C.

`Cc1cccc2c1ncn2C1=NC(C)(C)C(C)(C)c2ccccc21` [Compound E-16]: the “control of Pyrenophora teres” value in data set [1] was “at least 80%”.

In the case of `C=Cc1cccc2c1ncn2C1=NC(C)(C)C(C)(C)c2c(F)cccc21` [Compound E-13], the melting point lay in the range of 70 to 71 °C.

Take `Cc1cccc2c1ncn2C1=NC(C)(C)C(F)(F)c2ccccc21`: the melting point is 142 to 149 °C.

Compound `Cc1cccc2c1ncn2C1=NC(C)(C)C(=O)c2ccccc21` [Compound E-10] registered a melting point of 123 to 125 °C.

Consider `Cc1ccc2c(ncn2C2=NC(C)(C)Cc3cc(F)ccc32)c1C` [Compound E-57], for which the melting point is 143 to 145 °C.

Turning to `CC1(C)N=C(n2cnc3c(Cl)cccc32)c2cccc(F)c2C1(C)C` [Compound E-17], the melting point is 50 to 51 °C.

For `Cc1c(F)ccc2c1ncn2C1=NC(C)(C)C(=O)c2cc(Cl)ccc21` [Compound E-35], the melting point was 133 to 136 °C.

`CC1(C)N=C(n2cnc3c(Cl)cccc32)c2ccc(Cl)cc2C1(F)F` [Compound E-37] gave a melting point of 197 to 200 °C.

In turn, `Cc1cccc2c1ncn2C1=NC(C)(C)C(C)(C)c2c(F)cccc21` [X.011] showed a melting point of 118 to 120 °C.

`CC1(C)N=C(n2cnc3c4c(ccc32)CCC4)c2cccc(F)c2C1(C)C` [Compound E-51]: the melting point lay in the range of 177 to 178 °C.

In turn, `Cc1cccc2c1ncn2C1=NC(C)(C)C(C)(C)c2c(F)cccc21` [Compound E-1] displayed a melting point of 45 to 46 °C.
